Experimental data published in patent US12421224B2 (BIOGEN MA INC., priority 2019, dated 2025).
pIC50: −log10 of the molar value.

What follows are compounds tested against T1, Recombinant full length human OGA enzyme (Homo sapiens, UniProt O60502) (assay: OGA Enzyme Inhibition Biochemical Assay). Details: 1 nM OGA, 100 μM 4-MUGlcNAc (Km), pH 6.4, 90 minutes at room temperature, 10-point dose-response starting from 20 μM.
T1 construct: Recombinant full length human OGA enzyme; purchased Origene
T1 sequence (O60502 1-916): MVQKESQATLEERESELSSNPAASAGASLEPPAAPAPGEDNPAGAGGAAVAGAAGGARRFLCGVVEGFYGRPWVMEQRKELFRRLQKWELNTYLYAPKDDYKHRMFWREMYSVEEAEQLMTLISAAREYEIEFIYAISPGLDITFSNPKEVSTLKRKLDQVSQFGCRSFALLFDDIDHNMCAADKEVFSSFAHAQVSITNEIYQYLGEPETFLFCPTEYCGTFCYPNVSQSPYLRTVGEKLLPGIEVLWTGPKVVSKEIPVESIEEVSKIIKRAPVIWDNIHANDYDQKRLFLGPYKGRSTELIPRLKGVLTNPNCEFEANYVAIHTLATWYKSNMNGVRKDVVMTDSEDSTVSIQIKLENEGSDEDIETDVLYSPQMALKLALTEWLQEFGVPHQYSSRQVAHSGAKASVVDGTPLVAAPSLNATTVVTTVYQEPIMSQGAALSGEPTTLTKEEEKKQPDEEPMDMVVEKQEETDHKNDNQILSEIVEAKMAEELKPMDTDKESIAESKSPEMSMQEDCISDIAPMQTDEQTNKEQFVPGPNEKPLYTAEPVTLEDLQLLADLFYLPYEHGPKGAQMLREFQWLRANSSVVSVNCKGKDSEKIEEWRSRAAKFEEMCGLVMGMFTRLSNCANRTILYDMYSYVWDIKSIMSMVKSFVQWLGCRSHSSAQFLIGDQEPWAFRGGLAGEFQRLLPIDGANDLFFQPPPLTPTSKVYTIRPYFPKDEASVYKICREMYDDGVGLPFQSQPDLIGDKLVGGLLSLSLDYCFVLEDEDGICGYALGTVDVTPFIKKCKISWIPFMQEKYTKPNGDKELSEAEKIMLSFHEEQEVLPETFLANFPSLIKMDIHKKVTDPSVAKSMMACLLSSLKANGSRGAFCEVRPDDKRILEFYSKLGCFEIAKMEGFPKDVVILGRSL
Protocol: OGA Enzyme Inhibition Biochemical Assay
Recombinant full length human OGA enzyme was purchased from Origene. 4-MUGlCNAc substrate was purchased from Sigma. All other reagents were purchased from Sigma or Fisher. Assay buffer consists of the Mcllvaine buffer system, pH 6.4 (0.2M Na2HPO4 mixed with 0.1M citric acid) and 0.01% BSA. Reactions consist of 1 nM OGA, 100 μM 4-MUGlcNAc (Km), and compound in a final volume of 10 μl. Reactions were incubated for 90 minutes at room temperature and quenched with […] of 3M glycine, pH 10 and read on a Perkin Elmer Envision plate reader (Ex: 355 nm/Em: 460 nm). Compounds were tested with a 10-point dose-response starting from 20 μM with a 4-fold dilution. Data was fit using GraphPad Prism using a 4-parameter fit with variable slope.

Row | SMILES | pIC50
1 | COc1cc(O[C@@H]2CN(Cc3cnc(NC(C)=O)s3)[C@@H]2C)ncn1 (single isomer, unassigned) [Example 2-10] | 6.22
2 | COc1cc(COC2CN(Cc3cnc(NC(C)=O)s3)C2)ccn1 [Example 1-1, N-(5-((3-((2-methoxypyridin-4-yl)methoxy)azetidin-1-yl)methyl)thiazol-2-yl)acetamide] | 7.04
3 | CC(=O)Nc1ncc(CN2CC(OCc3cc(C)nc(C)c3)C2)s1 [Example 1-2, N-(5-((3-((2,6-dimethylpyridin-4-yl)methoxy)azetidin-1-yl)methyl)thiazol-2-yl)acetamide] | 6.32
4 | CC(=O)Nc1ncc(CN2CC(OCc3noc(C)n3)C2)s1 [Example 1-3, N-(5-((3-((5-methyl-1,2,4-oxadiazol-3-yl)methoxy)azetidin-1-yl)methyl)thiazol-2-yl)acetamide] | 6.66
5 | COc1cc(OC2CN(Cc3cnc(NC(C)=O)s3)C2)ncn1 [Example 2-1, N-(5-((3-((6-methoxypyrimidin-4-yl)oxy)azetidin-1-yl)methyl)thiazol-2-yl)acetamide] | 6.39
6 | CC(=O)Nc1ncc(CN2CC(Oc3ncc(F)cn3)C2)s1 [Example 2-2] | 6.28
7 | COc1cc(OC2CN(Cc3cnc(NC(C)=O)s3)C2)ccn1 [Example 2-3, N-(5-((3-((2-methoxypyridin-4-yl)oxy)azetidin-1-yl)methyl)thiazol-2-yl)acetamide] | 6.80
8 | CC(=O)Nc1ncc(CN2CC(Oc3ncccc3C)C2)s1 [Example 2-4, N-(5-((3-((3-methylpyridin-2-yl)oxy)azetidin-1-yl)methyl)thiazol-2-yl)acetamide] | < 7.70
9 | CC(=O)Nc1ncc(CN2CC(Oc3ccc(C#N)cn3)C2)s1 [Example 2-5, N-(5-((3-((5-cyanopyridin-2-yl)oxy)azetidin-1-yl)methyl)thiazol-2-yl)acetamide] | 6.47
10 | COc1cc(O[C@@H]2CN(Cc3cnc(NC(C)=O)s3)[C@@H]2C)ccn1 [Example 2-6, N-(5-(((2R,3R)-3-((2-methoxypyridin-4-yl)oxy)-2-methylazetidin-1-yl)methyl)thiazol-2-yl)acetamide] | 6.77
11 | COc1cc(O[C@H]2CN(Cc3cnc(NC(C)=O)s3)[C@@H]2C)ccn1 [Example 2-7, N-(5-(((2R,3S)-3-((2-methoxypyridin-4-yl)oxy)-2-methylazetidin-1-yl)methyl)thiazol-2-yl)acetamide] | 6.68
12 | CC(=O)Nc1ncc(CN2C[C@@H](Oc3ccc(F)cn3)[C@H]2C)s1 [Example 2-8, N-(5-(((2R,3R)-3-((5-fluoropyridin-2-yl)oxy)-2-methylazetidin-1-yl)methyl)thiazol-2-yl)acetamide] | 6.35
13 | CC(=O)Nc1ncc(CN2C[C@H](Oc3ccc(F)cn3)[C@H]2C)s1 [Example 2-9, N-(5-(((2R,3S)-3-((5-fluoropyridin-2-yl)oxy)-2-methylazetidin-1-yl)methyl)thiazol-2-yl)acetamide] | 6.77
14 | COc1cc(NC2CN(Cc3cnc(NC(C)=O)s3)C2)ncn1 [Example 2-11] | 6.39
15 | COc1cc(NC2CN(Cc3cnc(NC(C)=O)s3)C2)ccn1 [Example 2-12, N-(5-((3-((2-methoxypyridin-4-yl)amino)azetidin-1-yl)methyl)thiazol-2-yl)acetamide] | 7.48
16 | CC(=O)Nc1ncc(CN2CC(Nc3ccc(C#N)cn3)C2)s1 [Example 2-13, N-(5-((3-((5-cyanopyridin-2-yl)amino)azetidin-1-yl)methyl)thiazol-2-yl)acetamide] | 7.23
17 | CC(=O)Nc1ncc(CN2CC(Nc3ccc(F)cn3)C2)s1 [Example 2-14, N-(5-((3-((5-fluoropyridin-2-yl)amino)azetidin-1-yl)methyl)thiazol-2-yl)acetamide] | 6.89

Row | SMILES | pIC50
18 | CC(=O)Nc1ncc(CN2C[C@@H](Nc3ccc(F)cn3)[C@H]2C)s1 [Example 2-15, N-(5-(((2R,3R)-3-((5-fluoropyridin-2-yl)amino)-2-methylazetidin-1-yl)methyl)thiazol-2-yl)acetamide] | 6.10
19 | COc1cc(N[C@@H]2CN(Cc3cnc(NC(C)=O)s3)[C@@H]2C)ccn1 [Example 2-16, N-(5-(((2R,3R)-3-((2-methoxypyridin-4-yl)amino)-2-methylazetidin-1-yl)methyl)thiazol-2-yl)acetamide] | 6.24
20 | COc1cc(N[C@H]2CN(Cc3cnc(NC(C)=O)s3)[C@@H]2C)ccn1 [Example 2-17, N-(5-(((2R,3S)-3-((2-methoxypyridin-4-yl)amino)-2-methylazetidin-1-yl)methyl)thiazol-2-yl)acetamide] | 7.96
21 | CC(=O)Nc1ncc(CN2C[C@@H](Nc3ccc(C#N)cn3)[C@H]2C)s1 [Example 2-18, N-(5-(((2R,3R)-3-((5-cyanopyridin-2-yl)amino)-2-methylazetidin-1-yl)methyl)thiazol-2-yl)acetamide] | 6.24
22 | CC(=O)Nc1ncc(CN2C[C@H](Nc3ccc(C#N)cn3)[C@H]2C)s1 [Example 2-19, N-(5-(((2R,3S)-3-((5-cyanopyridin-2-yl)amino)-2-methylazetidin-1-yl)methyl)thiazol-2-yl)acetamide] | 7.60
23 | CC(=O)Nc1ncc(CN2CC(COc3cc(C)nc(C)c3)C2)s1 [Example 2-20, N-(5-((3-(((2,6-dimethylpyridin-4-yl)oxy)methyl)azetidin-1-yl)methyl)thiazol-2-yl)acetamide] | 6.32
24 | CC(=O)Nc1ncc(CN2CC(COc3cc(C)nc(C)n3)C2)s1 [Example 2-21, N-(5-((3-(((2,6-dimethylpyrimidin-4-yl)oxy)methyl)azetidin-1-yl)methyl)thiazol-2-yl)acetamide] | 5.89
25 | CC(=O)Nc1ncc(CN2CC(COc3ccc(F)cn3)C2)s1 [Example 2-22, N-(5-((3-(((5-fluoropyridin-2-yl)oxy)methyl)azetidin-1-yl)methyl)thiazol-2-yl)acetamide] | 5.82
26 | COc1cc(OCC2CN(Cc3cnc(NC(C)=O)s3)C2)ccn1 [Example 2-23, N-(5-((3-(((2-methoxypyridin-4-yl)oxy)methyl)azetidin-1-yl)methyl)thiazol-2-yl)acetamide] | 6.17
27 | CC(=O)Nc1ncc(CN2CC(CNc3cc(C)nc(C)c3)C2)s1 [Example 2-24, N-(5-((3-(((2,6-dimethylpyridin-4-yl)amino)methyl)azetidin-1-yl)methyl)thiazol-2-yl)acetamide] | 5.85
28 | COc1cc(NCC2CN(Cc3cnc(NC(C)=O)s3)C2)ccn1 [Example 2-25, N-(5-((3-(((2-methoxypyridin-4-yl)amino)methyl)azetidin-1-yl)methyl)thiazol-2-yl)acetamide] | 6.21
29 | CC(=O)Nc1ncc(CN2CC(CNc3cc(C)nc(C)n3)C2)s1 [Example 2-26, N-(5-((3-(((2,6-dimethylpyrimidin-4-yl)amino)methyl)azetidin-1-yl)methyl)thiazol-2-yl)acetamide] | 5.89
30 | COc1cc(O[C@H]2CN(Cc3cnc(NC(C)=O)s3)[C@@H]2C)ncn1 [Example 2-27, N-(5-(((2R,3S)-3-((6-methoxypyrimidin-4-yl)oxy)-2-methylazetidin-1-yl)methyl)thiazol-2-yl)acetamide] | 6.22
31 | COc1cc(O[C@@H]2CN(Cc3cnc(NC(C)=O)s3)[C@@H]2C)ncn1 [Example 2-28, N-(5-(((2R,3R)-3-((6-methoxypyrimidin-4-yl)oxy)-2-methylazetidin-1-yl)methyl)thiazol-2-yl)acetamide] | 6.96
32 | CC(=O)Nc1ncc(CN2C[C@@H](Oc3ncc(F)cn3)[C@H]2C)s1 [Example 2-29, N-(5-(((2R,3R)-3-((5-fluoropyrimidin-2-yl)oxy)-2-methylazetidin-1-yl)methyl)thiazol-2-yl)acetamide] | 6.24
33 | CC(=O)Nc1ncc(CN2C[C@H](Oc3ncc(F)cn3)[C@H]2C)s1 [Example 2-30, N-(5-(((2R,3S)-3-((5-fluoropyrimidin-2-yl)oxy)-2-methylazetidin-1-yl)methyl)thiazol-2-yl)acetamide] | 6.77
34 | CC(=O)Nc1ncc(CN2C[C@@H](Oc3ccc(C#N)cn3)[C@H]2C)s1 [Example 2-31, N-(5-(((2R,3R)-3-((5-cyanopyridin-2-yl)oxy)-2-methylazetidin-1-yl)methyl)thiazol-2-yl)acetamide] | 6.36
